Here are results for 25 compounds from US7662832B2, “Pyrrolo[2,3-c]pyridine derivatives and processes for the preparation thereof” (priority 2004, dated 2010).

Structures can show the parent of a compound that is named as a salt.

The target of the assay is Proton Pump (H^+/K^+-ATPase) (Sus scrofa, UniProt P19156). In words: Inhibitory effects on proton pump (H^+/K^+-ATPase) activity. The class given is biochemical. As to conditions: hog gastric vesicles; K^+ stimulated H^+/K^+-ATPase activity; 30 minutes at 37° C.
Proton Pump (H^+/K^+-ATPase), sequence (P19156 2-1034 limits assumed): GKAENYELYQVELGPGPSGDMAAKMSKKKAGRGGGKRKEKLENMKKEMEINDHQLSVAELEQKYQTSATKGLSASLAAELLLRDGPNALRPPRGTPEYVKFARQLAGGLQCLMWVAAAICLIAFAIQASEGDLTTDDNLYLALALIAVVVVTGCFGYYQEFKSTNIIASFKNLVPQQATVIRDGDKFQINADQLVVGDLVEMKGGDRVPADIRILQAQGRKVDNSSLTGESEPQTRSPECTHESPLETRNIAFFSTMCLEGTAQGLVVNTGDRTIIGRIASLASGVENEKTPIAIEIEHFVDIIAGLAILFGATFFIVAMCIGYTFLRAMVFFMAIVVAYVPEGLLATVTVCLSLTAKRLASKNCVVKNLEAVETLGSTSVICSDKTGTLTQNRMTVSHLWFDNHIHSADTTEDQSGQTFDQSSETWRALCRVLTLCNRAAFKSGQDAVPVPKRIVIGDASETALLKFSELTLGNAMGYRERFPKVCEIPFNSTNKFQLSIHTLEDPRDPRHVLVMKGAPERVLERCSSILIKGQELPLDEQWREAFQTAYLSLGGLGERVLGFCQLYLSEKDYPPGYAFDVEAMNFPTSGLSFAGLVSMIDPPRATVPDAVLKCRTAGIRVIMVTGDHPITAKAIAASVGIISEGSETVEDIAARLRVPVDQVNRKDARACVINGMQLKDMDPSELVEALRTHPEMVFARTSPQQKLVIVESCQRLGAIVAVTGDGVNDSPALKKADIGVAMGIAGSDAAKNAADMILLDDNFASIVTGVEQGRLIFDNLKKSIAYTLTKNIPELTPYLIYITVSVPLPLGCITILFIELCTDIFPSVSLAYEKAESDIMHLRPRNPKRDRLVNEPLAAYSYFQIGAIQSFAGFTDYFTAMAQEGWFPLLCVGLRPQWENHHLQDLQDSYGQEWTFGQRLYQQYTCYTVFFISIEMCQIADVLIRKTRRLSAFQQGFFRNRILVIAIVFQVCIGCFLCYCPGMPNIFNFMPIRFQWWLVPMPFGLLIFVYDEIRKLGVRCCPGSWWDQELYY
Proton Pump (H^+/K^+-ATPase), sequence (P18434 whole entry partner): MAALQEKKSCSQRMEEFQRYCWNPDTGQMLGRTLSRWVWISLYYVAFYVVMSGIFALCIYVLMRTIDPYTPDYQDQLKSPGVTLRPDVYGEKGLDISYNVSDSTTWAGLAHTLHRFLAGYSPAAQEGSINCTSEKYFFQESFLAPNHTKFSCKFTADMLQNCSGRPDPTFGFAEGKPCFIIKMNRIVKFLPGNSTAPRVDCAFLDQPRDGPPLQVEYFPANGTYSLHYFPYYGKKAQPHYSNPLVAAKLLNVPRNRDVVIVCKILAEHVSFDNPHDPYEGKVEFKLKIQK
On to `C=Cc1ccc(-c2nccc3c(C)c(C)n(CCC(C)C)c23)cc1` [Example 256, 2,3-dimethyl-1-(3-methylbutyl)-7-(4-vinylphenyl)-1H-pyrrolo[2,3-c]pyridine hydrochloride], for which it took 0.31 µM to reach half-maximal inhibition (IC50).

Compound `Cc1ccc(Cn2c(C)c(C)c3ccnc(N(C)Cc4ccc(F)cc4)c32)cc1` [Example 152, 7-[N-(4-fluorobenzyl)-N-methyl]amino-2,3-dimethyl-1-(4-methylbenzyl)-1H-pyrrolo[2,3-c]pyridine hydrochloride] showed an IC50 of 0.17 µM.

Compound `Cc1ccc(CNc2nccc3c(C)c(C)n(CC4CC4)c23)cc1` [Example 204, 1-cyclopropylmethyl-2,3-dimethyl-7-(4-methylbenzylamino)-1H-pyrrolo[2,3-c]pyridine hydrochloride] displayed a 50% inhibitory concentration (IC50) of 0.21 µM. This IC50 and that of the compound before are within 1.5-fold of each other.

Turning to `Cc1c(C)n(Cc2ccccc2F)c2c(-c3ccc4ccccc4c3)nccc12` [Example 409, 1-(2-fluorobenzyl)-2,3-dimethyl-7-(naphthalen-2-yl)-1H-pyrrolo[2,3-c]pyridine hydrochloride], inhibition was half-maximal at 0.093 µM (IC50).

`CSc1ccc(-c2nccc3c(C)c(C)n(CC4CC4)c23)cc1` [Example 270, 1-cyclopropylmethyl-2,3-dimethyl-7-(4-methylsulfanylphenyl)-1H-pyrrolo[2,3-c]pyridine hydrochloride] registered an IC50 of 0.45 µM.

`CC(C)=CCn1c(C)c(C)c2ccnc(N3CCc4ccc(Cl)cc4C3C)c21` (stereo not shown) [Example 534, 7-chloro-2-[2,3-dimethyl-1-(3-methylbut-2-enyl)-1H-pyrrolo[2,3-c]pyridin-7-yl]-1-methyl-1,2,3,4-tetrahydroisoquinoline hydrochloride] registered an IC50 of 0.4 µM.

The compound `Cc1[nH]c2c(N3CCc4ccc(F)cc4C3C)nccc2c1C` (stereo not shown) [Example 541, 7-fluoro-2-(2,3-dimethyl-1H-pyrrolo[2,3-c]pyridin-7-yl)-1-methyl-1,2,3,4-tetrahydroisoquinoline hydrochloride] displayed an IC50 of 0.35 µM. The IC50 values of the last two compounds are within 1.5-fold of each other.

With `Cc1cccc(Cn2c(C)c(C)c3ccnc(N4CCc5ccccc5C4)c32)c1` [Example 515, 1-(3-methylbenzyl)-7-(1,2,3,4-tetrahydroisoquinolin-2-yl)-2,3-dimethyl-1H-pyrrolo[2,3-c]pyridine hydrochloride], the IC50 came to 0.2 µM.

On to `Cc1ccc(Cn2c(C)c(C)c3ccnc(C=Cc4ccccc4)c32)cc1` [Example 417, 2,3-dimethyl-1-(4-methylbenzyl)-7-styryl-1H-pyrrolo[2,3-c]pyridine hydrochloride], for which the 50% inhibitory concentration (IC50) was found to be 0.37 µM.

`CCn1c(C)c(C)c2cc(C(=O)N3CCC(CCO)CC3)nc(N3CCc4ccccc4C3)c21` [Example 804, [7-(3,4-dihydro-1H-isoquinolin-2-yl)-1-ethyl-2,3-dimethyl-1H-pyrrolo[2,3-c]pyridin-5-yl]-[4-(2-hydroxyethyl)-piperidin-1-yl]-methanone hydrochloride] gave a concentration for half-maximal inhibition (IC50) of 0.036 µM.

Compound `C=CCn1c(C)c(C)c2ccnc(-c3ccc(SC)cc3)c21` [Example 263, 1-allyl-2,3-dimethyl-7-(4-methylsulfanylphenyl)-1H-pyrrolo[2,3-c]pyridine hydrochloride] gave an IC50 of 0.075 µM.

`Cc1c(C)n(Cc2ccccc2F)c2c(CN(C)c3ccc(F)cc3)nccc12` [Example 115, N-[1-(2-fluorobenzyl)-2,3-dimethyl-1H-pyrrolo[2,3-c]pyridin-7-ylmethyl]-N-(4-fluorophenyl)-methylamine hydrochloride] yielded an IC50 of 0.142 µM.

Compound `COc1cccc(Cn2c(C)c(C)c3ccnc(COc4ccc(C)cc4C)c32)c1` [Example 68, 1-(3-methoxybenzyl)-2,3-dimethyl-7-(2,4-dimethylphenoxymethyl)-1H-pyrrolo[2,3-c]pyridine hydrochloride] had an IC50 of 0.212 µM.

`Cc1cccc(Cn2c(C)c(C)c3cc(C(=O)N4CCNCC4)nc(N4CCc5ccccc5C4)c32)c1` [Example 814, [7-(3,4-dihydro-1H-isoquinolin-2-yl)-2,3-dimethyl-1-(3-methylbenzyl)-1H-pyrrolo[2,3-c]pyridin-5-yl]-(piperazin-1-yl)-methanone hydrochloride] had a half-maximal inhibitory concentration (IC50) of 0.031 µM.

`Cc1c(C)n(Cc2ccccc2)c2c(NCc3ccc(Cl)cc3)nccc12` [Example 215, 1-benzyl-7-(4-chlorobenzylamino)-2,3-dimethyl-1H-pyrrolo[2,3-c]pyridine hydrochloride] came in with a concentration for half-maximal inhibition (IC50) of 0.42 µM. This IC50 is about 14-fold higher than that of the compound before.

Compound `Cc1c(C)n(CC2CC2)c2c(N3CCc4ccccc4C3)nc(C(=O)O)cc12` [Example 740, 1-cyclopropylmethyl-7-(3,4-dihydro-1H-isoquinolin-2-yl)-2,3-dimethyl-1H-pyrrolo[2,3-c]pyridin-5-carboxylic acid] returned an IC50 of 0.267 µM.

In the case of `Cc1c(C)n(CCC(C)Cl)c2c(N3CCc4ccccc4C3)nccc12` (stereo not shown) [Example 513, 1-(3-chlorobutyl)-7-(1,2,3,4-tetrahydroisoquinolin-2-yl)-2,3-dimethyl-1H-pyrrolo[2,3-c]pyridine hydrochloride], it took 0.074 µM to reach half-maximal inhibition (IC50).

On to `Cc1c(C)n(Cc2cccc(F)c2)c2c(N3CCc4cc(F)ccc4C3C)nccc12` (stereo not shown) [Example 565, 6-fluoro-2-[1-(3-fluorobenzyl)-2,3-dimethyl-1H-pyrrolo[2,3-c]pyridin-7-yl]-1-methyl-1,2,3,4-tetrahydroisoquinoline hydrochloride], for which the half-inhibitory concentration (IC50) was 0.33 µM.

As to `Cc1c(C)n(Cc2cccc(F)c2)c2c(CCc3ccccc3)nccc12` [Example 449, 1-(3-fluorobenzyl)-2,3-dimethyl-7-phenethyl-1H-pyrrolo[2,3-c]pyridine hydrochloride], the 50% inhibitory concentration (IC50) was determined as 0.087 µM.

Compound `Cc1c(C)n(Cc2cccc(F)c2)c2c(N3CCc4ccccc4C3)nc(C(=O)N3CCN(C)CC3)cc12` [Example 832, [7-(3,4-dihydro-1H-isoquinolin-2-yl)-1-(3-fluorobenzyl)-2,3-dimethyl-1H-pyrrolo[2,3-c]pyridin-5-yl]-(4-methylpiperazin-1-yl)-methanone hydrochloride] displayed an IC50 of 0.031 µM.

Turning to `Cc1c(C)n(Cc2ccccc2)c2c(COc3ccc(F)cc3)nccc12` [Example 3, 1-benzyl-7-(4-fluorophenoxymethyl)-2,3-dimethyl-1H-pyrrolo[2,3-c]pyridine hydrochloride], the IC50 is 0.058 µM.

Turning to `CCn1c(C)c(C)c2cc(N)nc(N3CCc4ccccc4C3)c21` [Example 849, 7-(3,4-dihydro-1H-isoquinolin-2-yl)-1-ethyl-2,3-dimethyl-1H-pyrrolo[2,3-c]pyridin-5-amine hydrochloride], the 50% inhibitory concentration (IC50) worked out at 0.129 µM.

Consider `CCn1c(C)c(C)c2cc(C(=O)N3CCCC(O)C3)nc(N3CCc4ccccc4C3)c21` (stereo not shown) [Example 807, [7-(3,4-dihydro-1H-isoquinolin-2-yl)-1-ethyl-2,3-dimethyl-1H-pyrrolo[2,3-c]pyridin-5-yl]-(3-hydroxypiperidin-1-yl)-methanone hydrochloride], for which the half-maximal inhibitory concentration (IC50) was determined as 0.023 µM.

Turning to `Cc1ccc(-c2nccc3c(C)c(C)n(Cc4ccccc4)c23)cc1` [Example 281, 1-benzyl-2,3-dimethyl-7-(p-tolyl)-1H-pyrrolo[2,3-c]pyridine hydrochloride], the IC50 was determined as 0.292 µM.

Compound `Cc1c(C)n(Cc2ccccc2)c2c(NCc3ccc(F)cc3)nc(C(=O)N3CCCCC3)cc12` [Example 908, [1-benzyl-7-(4-fluorobenzylamino)-2,3-dimethyl-1H-pyrrolo[2,3-c]pyridin-5-yl]-(piperidin-1-yl)-methanone hydrochloride] registered a concentration for half-maximal inhibition (IC50) of 0.384 µM. This IC50 and that of the compound before are within 1.5-fold of each other.

Broadly, the IC50 is the concentration needed to halve the response being measured.
